Measurements as given in BindingDB's records for doi:10.1016/s0960-894x(02)00699-6 (Sapienza University of Rome, 2002).

Target: Diamine oxidase [copper-containing] (Sus scrofa)
Test: Inhibitory activity against Swine kidney diamine oxidase (SKDAO)

Ki [µM]	SMILES
25	CC(=O)N1N=C(c2ccc(O)cc2O)CC1c1cccc(C)c1 (centres undefined) [1-[3-(2,4-Dihydroxy-phenyl)-5-m-tolyl-4,5-dihydro-pyrazol-1-yl]-ethanone]
100	CC(=O)N1N=C(c2ccc(O)cc2O)CC1c1ccccc1C (centres undefined) [1-[3-(2,4-Dihydroxy-phenyl)-5-o-tolyl-4,5-dihydro-pyrazol-1-yl]-ethanone]
8	CC(=O)N1N=C(c2ccccc2O)CC1c1cccc(C)c1 (centres undefined) [1-[3-(2-Hydroxy-phenyl)-5-m-tolyl-4,5-dihydro-pyrazol-1-yl]-ethanone]
5.5	CC(=O)N1N=C(c2ccccc2O)CC1c1ccccc1C (centres undefined) [1-[3-(2-Hydroxy-phenyl)-5-o-tolyl-4,5-dihydro-pyrazol-1-yl]-ethanone]
